Square brackets hold non-standard residues; d marks the D form. Ends that are not written are not given here. PEG2 = NCCOCCOCCC(=O)O
What was measured:
[1] = tested on: P. aeruginosa (ATCC 27853); test: Mouse model of Pseudomonas (bacterial) keratitis; assay type: in vivo
Experimental: A circular wound was created on the mouse cornea by removing the epithelium and infected with 10^5 colony forming units (CFU) of P. aeruginosa (ATCC® 27853™ (American Type Culture Collection, Manassas, Va.)). Infected wounds were treated with saline (0.9% sodium chloride, vehicle control) or saline containing indicated concentrations of peptide every 15 minutes for 2 hours, then every 30 minutes for 3 hours on the first day. Infected wounds were treated twice on the second day and once on the third day. Mice were killed at 48 hours post-infection, and CFU/eye were quantified. The means were plotted and are representative of 5 to 9 mice per group. Mann Whitney test was performed for each group as compared to the saline control group. *P=0.014. In compound names such as BCC02-5RMP used herein, “R” represents arginine, and “MP” represents a small PEG molecule as defined elsewhere herein (such as, for example but not by way of limitation, “AEEP”).
(§1) A circular wound was created on the mouse cornea by removing the epithelium, and the wound was infected with 10^5 CFU of P. aeruginosa (ATCC® 27853™ (American Type Culture Collection, Manassas, Va.)). Infected wounds were treated with saline or saline containing indicated concentrations (2, 5, 10, and 20 mg/ml) of peptide every 30 minutes for 6 hours on the first day. Infected wounds were treated twice on the second day and once on the third day. Mice were killed at 48 hours post-infection, and the CFU/eye were quantified. The means are plotted and are representative of 5 mice per group. Mann Whitney test was performed for each group as compared to the saline control group. *P=0.015 and **P=0.097.
as §1, with “representative of 4 to 5 mice” for “representative of 5 mice”, “control group.” for “control group. *P=0.015 and **P=0.097.”
as §1, with “group. **P=0.0079 by” for “group.”, “test” for “test was performed for each group”, “group.” for “group. *P=0.015 and **P=0.097.”
A circular wound (2 mm) was created on the mouse cornea by removing the epithelium and infecting the wound with 10^5 CFU of P. aeruginosa (ATCC® 27853™ (American Type Culture Collection, Manassas, Va.)). Infected wounds were treated with saline or saline containing indicated concentrations of peptide every 15 minutes for 2 hours, then every 30 minutes for 3 hours on the first day. […] Mice were killed at 48 hours post-infection, and the colony forming units per eye (CFU/eye) were quantified. […]

[2] = tested on: Pseudomonas aeruginosa ATCC 27853; test: In vitro bactericidal assay, P. aeruginosa ATCC 27853 (FIGS. 12-14); assay type: cell-based; details: FIG. 14; pH 5.5; 180 minutes; even at the lower concentration (75 μg/ml)
Experimental: (§2) Each of the test peptides was used at 25, 12.5 6.25, and 3.12 μM. The gentamicin was used at 4 μg/ml. 1×10^6/ml Pseudomonas aeruginosa ATCC® 27853™ (American Type Culture Collection, Manassas, Va.) were incubated with the peptides, negative buffer control (tryptone saline), and positive control gentamicin for 180 minutes at pH 7.2. 50 μl aliquots were plated out on agar plates and incubated overnight. Colony forming units were counted after overnight incubation and CFU/ml calculated.
as §2, with “12.5,” for “12.5”, “5.5.” for “7.2.”
FIG. 14 is a comparison of bactericidal activity of CAP37 peptides 120-146WR (SEQ ID NO:30), 120-146WH (SEQ ID NO:31), 120-146QR (SEQ ID NO:28), 120-146QH (SEQ ID NO:29), 120-146QR-5RMP (SEQ ID NO:32), and 120-146QH-5RMP (SEQ ID NO:33) for Pseudomonas aeruginosa ATCC® 27853™ (American Type Culture Collection, Manassas, Va.). 1×10^6/ml Pseudomonas aeruginosa ATCC® 27853™ were incubated with the peptides at 150, 75, and 37.5 μg/ml and negative buffer control (tryptone saline) for 180 minutes at pH 5.5. 50 μl aliquots were plated out on agar plates and incubated overnight. Colony forming units were counted after overnight incubation and CFU/ml calculated.
For FIGS. 10-13, in vitro bactericidal assays were performed using a starting inoculum of 1×10^6 CFU/ml of the bacterial suspension. The CFU remaining at the end of the 60-180 minute incubation was determined, and the data was plotted as log reduction in CFU/ml.
In particular, each of the test peptides (CAP37 peptides 120-146WR, 120-146WH, and 95-122 (SEQ ID NOS:30, 31, and 26, respectively)) was used at 25, 12.5, 6.25, and 3.12 μM. Gentamicin was used at 4 μg/ml. 1×10^6/ml Acinetobacter baumannii ATCC® BAA-747™ or Pseudomonas aeruginosa ATCC® 27853™ (American Type Culture Collection, Manassas, Va.) were incubated with the peptides, negative buffer control (tryptone saline), and positive control gentamicin at pH 5.5 or 7.2. A 60 minute incubation was used for Acinetobacter baumannii ATCC® BAA-747™, while a 180 minute incubation was used for Pseudomonas aeruginosa ATCC® 27853™. 50 μl aliquots were plated out on agar plates and incubated overnight. Colony forming units were counted after overnight incubation and CFU/ml calculated.
For FIG. 14, 1×10^6/ml Pseudomonas aeruginosa ATCC® 27853™ were incubated with each of the test peptides (CAP37 peptides 120-146WR, 120-146WH, 120-146QR, 120-146QH, 120-146QR-5RMP, and 120-146QH-5RMP (SEQ ID NOS:30, 31, 28, 29, 32, and 33, respectively)) at 150, 75, and 37.5 μg/ml, or negative buffer control (tryptone saline), for 180 minutes at pH 5.5. 50 μl aliquots were plated out on agar plates and incubated overnight. Colony forming units were counted after overnight incubation and CFU/ml calculated.

Substance: (AEEP)-(AEEP)-RRRRGTRCQVAGWGSQRSGGRLSRFPRFVNVR ([PEG2][PEG2]RRRRGTRCQVAGWGSQRSGGRLSRFPRFVNVR) [120-146QR-5RMP]
- mice with no viable bacteria in the eye after treatment ([1]; the 10 and 20 mg/ml groups together): Six of the 10 mice
- CFU/eye vs saline, in words ([1]; topical doses of 10 and 20 mg/ml, 48 hours post-infection): significantly reduced the CFU/eye
- reduction in CFU [2]: ~6 log
